According to ChEMBL document CHEMBL1121897, “Synthesis and antihypertensive activity of new 6-heteroaryl-3-hydrazinopyridazine derivatives” (J Med Chem, 1981):

Assays:
Rattus norvegicus [1] = assay: Relative potency of compound was measured in anesthetized rats after iv administration; assay type: functional
Rattus norvegicus [2] = assay: Hypotensive activity was measured as ED20 which is the dose lowered the normal arterial pressure in anesthetized rat by 20% after iv administration; assay type: functional, Artery
Rattus norvegicus [3] = assay: Relative potency of compound was measured in conscious SH rats after po administration; assay type: functional
[4] = Acute toxicity was measured as LD50 in mice after ip administration; assay type: organism-based; conditions: mouse, in vivo
Rattus norvegicus [5] = assay: Antihypertensive activity was measured as ED20 which is the dose lowered the normal arterial pressure in conscious SH rats by 20% after po administration; assay type: functional, Artery
Rattus norvegicus [6] = assay: Relative potency of compound was measured in anesthetized rats after iv administration.; assay type: functional
Rattus norvegicus [7] = assay: Hypotensive activity was measured as ED20 which is the dose lowered the normal arterial pressure in anesthetized rats by 20% after iv administration.; assay type: functional, Artery
Rattus norvegicus [8] = assay: Relative potency of compound was measured in anesthetized rats after ip administration; assay type: functional
Rattus norvegicus [9] = assay: Hypotensive activity was measured as ED20 which is the dose lowered the normal arterial pressure in anesthetized rats by 20% after iv administration; assay type: functional, Artery
Rattus norvegicus [10] = assay: Relative potency of compound was measured in conscious SH rats after po administration.; assay type: functional
Rattus norvegicus [11] = assay: Antihypertensive activity was measured as ED20 which is the dose lowered the normal arterial pressure in conscious SH rats by 20% after po administration.; assay type: functional, Artery
[12] = Acute toxicity was measured as LD50 in mice after ip administration.; assay type: organism-based; conditions: mouse, in vivo
Rattus norvegicus [13] = assay: Hypotensive activity was measured as ED20 which is the dose lowered the normal arterial pressure in anesthetized rats by 20% after ip administration.; assay type: functional, Artery
Rattus norvegicus [14] = assay: Relative potency of compound was measured in anesthetized rats after ip administration.; assay type: functional

Structure (SMILES): Cl.NNc1ccc(-n2cccc2)nn1
- Relative potency (Rattus norvegicus [1]): 1.06
- ED20 (Rattus norvegicus [2]): 0.423 µM/kg
- Relative potency (Rattus norvegicus [3]): 0.9
- LD50 [4]: 389 µmol/kg
- ED20 (Rattus norvegicus [5]): 40.1 µM/kg

Structure (SMILES): CC(C)=NNc1ccc(-n2cccc2)nn1.Cl
- Relative potency (Rattus norvegicus [6]): 0.1
- ED20 (Rattus norvegicus [7]): 4.65 µM/kg

Structure (SMILES): Cc1ccc(C)n1-c1ccc(NN)nn1.Cl
- Relative potency (Rattus norvegicus [8]): 0.06
- ED20 (Rattus norvegicus [9]): 8.02 µM/kg

Structure (SMILES): CC(C)=C/C(C)=N\Nc1ccc(-n2cccc2)nn1.Cl
- Relative potency (Rattus norvegicus [6]): 0.25
- ED20 (Rattus norvegicus [7]): 1.77 µM/kg

Structure (SMILES): NNc1ccc(-c2ccc(Cl)s2)nn1
- Relative potency (Rattus norvegicus [8]): 0.19
- ED20 (Rattus norvegicus [9]): 9.51 µM/kg

Structure (SMILES): CCc1nccn1-c1ccc(NN=C(C)C)nn1
- Relative potency (Rattus norvegicus [10]): 3.54
- Relative potency (Rattus norvegicus [6]): 1.82
- ED20 (Rattus norvegicus [11]): 10.2 µM/kg
- LD50 [12]: 508 µmol/kg
- ED20 (Rattus norvegicus [7]): 0.247 µM/kg

Structure (SMILES): NNc1ccc(-n2c3ccccc3c3ccccc32)nn1
- Relative potency (Rattus norvegicus [8]): <0.11

Structure (SMILES): NNc1ccc(-c2cccs2)nn1
- Relative potency (Rattus norvegicus [8]): 1.08
- ED20 (Rattus norvegicus [9]): 0.41 µM/kg
- LD50 [4]: 521 µmol/kg

Structure (SMILES): Cc1nccn1-c1ccc(NN)nn1
- Relative potency (Rattus norvegicus [8]): 2.75
- Relative potency (Rattus norvegicus [3]): 4.88
- ED20 (Rattus norvegicus [9]): 0.163 µM/kg
- LD50 [4]: 1020 µmol/kg
- ED20 (Rattus norvegicus [5]): 7.42 µM/kg

Structure (SMILES): NNc1ccc(-n2ccnc2)nn1
- Relative potency (Rattus norvegicus [8]): 0.17
- ED20 (Rattus norvegicus [9]): 2.64 µM/kg
- LD50 [4]: 853 µmol/kg

Structure (SMILES): CCc1nccn1-c1ccc(NN)nn1
- Relative potency (Rattus norvegicus [8]): 1.43
- Relative potency (Rattus norvegicus [3]): 2.52
- ED20 (Rattus norvegicus [9]): 0.313 µM/kg
- LD50 [4]: 765 µmol/kg
- ED20 (Rattus norvegicus [5]): 14.3 µM/kg

Structure (SMILES): NNc1ccc(-n2cncn2)nn1
- Relative potency (Rattus norvegicus [8]): 0.17
- LD50 [4]: 262 µmol/kg

Structure (SMILES): NNc1ccc(-n2ccc3ccccc32)nn1
- Relative potency (Rattus norvegicus [8]): 0.22
- ED20 (Rattus norvegicus [9]): 2.06 µM/kg
- LD50 [4]: 206 µmol/kg

Structure (SMILES): NNc1ccc(-n2cccn2)nn1
- Relative potency (Rattus norvegicus [10]): 1.32
- ED20 (Rattus norvegicus [9]): 0.83 µM/kg
- LD50 [4]: 387 µmol/kg
- ED20 (Rattus norvegicus [5]): 27.3 µM/kg

Structure (SMILES): NNc1ccc(-n2cccc2)[n+]([O-])n1
- ED20 (Rattus norvegicus [13]): >5.24 µM/kg
- Relative potency (Rattus norvegicus [14]): <0.34

Structure (SMILES): CC(C)=NNc1ccc(-n2ccnc2C)nn1
- Relative potency (Rattus norvegicus [10]): 3.37
- Relative potency (Rattus norvegicus [6]): 1.86
- ED20 (Rattus norvegicus [11]): 10.7 µM/kg
- LD50 [12]: 430 µmol/kg
- ED20 (Rattus norvegicus [7]): 0.242 µM/kg

Structure (SMILES): N/N=c1\[nH][nH]/c(=N\N)c2ccccc12 [DIHYDRALAZINE]
- Relative potency (Rattus norvegicus [10]): 1
- Relative potency (Rattus norvegicus [6]): 1
- ED20 (Rattus norvegicus [13]): 1.78 µM/kg
- ED20 (Rattus norvegicus [11]): 36.1 µM/kg
- LD50 [12]: 1080 µmol/kg
- ED20 (Rattus norvegicus [7]): 0.449 µM/kg
